Measured values reported in patent EP4678638A1, “NEW E3 UBIQUITIN LIGASE LIGAND, PROTEIN DEGRADATION AGENT AND USE THEREOF” (priority 2023, dated 2024).

Tests used:
22RV1 = assay: CCK-8 proliferation, 22RV1; type: cell-based; conditions: Homo sapiens, 96 hours, read-out: Inhibitory activity (IC50) on tumor cell proliferation, 22RV1
Protocol: (§1) The tumor cells used herein were cultured in a cell culture medium listed in table A1 at 37°C in an incubator with 5% CO2. Prior to experimentation, all cell lines used were correctly identified by STR profiling, and tested negative for mycoplasma contamination using a mycoplasma detection kit through routine screenings. Table A1. Tumor cells and cell culture medium used in the present disclosure
(§2) IC50 values of the compounds of the present disclosure (including the compounds in Table 1, and compounds of examples) were measured using the Meilun Cell Counting Kit-8 kit from Dalian Meilun Biotech Co., Ltd. Assay details are as follows: tumor cells were seeded in a 96-well plate at a density listed in Table A2. After 24h, 100 µL of the inoculated cells were treated with 0.5µL of the compounds of the present disclosure (including the compounds in Tables 1 and 2, and compounds of examples) at 10 different successively decreasing concentrations (starting at the highest concentration of 10µM; 5-fold serial dilutions). After the cells were treated with the compounds of the present disclosure for a period of time, the cell viability detection reagent was added to the culture medium for cell viability assessment according to the instructions provided with the CCK-8 kit. […] The growth inhibition of the compounds of the present disclosure on cells was plotted by Prism Graphpad software, and the IC50 values of the compounds of the present disclosure were calculated therefrom. […] Seeding protocol and treatment time for tumor cells

H1975 = assay: CCK-8 proliferation, NCI-H1975 (H1975); type: cell-based, Human; conditions: Homo sapiens, NCI-H1975; CCK-8; 96 hours; read-out: Inhibitory activity (IC50) on tumor cell proliferation, H1975
In short: (§3)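 CCK-8 viability readout; IC50 from growth-inhibition curve fitting. Cells plated, dosed 24h later with a 10-point series, top 10µM, 5-fold steps. Culture at 37°C, 5% CO2.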

SR = assay: CCK-8 proliferation, SR; type: cell-based, Human; conditions: Homo sapiens, SR; CCK-8; 72 hours; read-out: Inhibitory activity (IC50) on tumor cell proliferation, SR
In short: as §3

CCRF-CEM = assay: CCK-8 proliferation, CCRF-CEM; type: cell-based, Human; conditions: Homo sapiens, CCRF-CEM; CCK-8; 96 hours; read-out: Inhibitory activity (IC50) on tumor cell proliferation, CCRF-CEM
In short: as §3

MCF7 = assay: CCK-8 proliferation, MCF7 (MCF-7); type: cell-based; conditions: Homo sapiens, MCF7; CCK-8; read-out: Inhibitory activity (IC50) on tumor cell proliferation, MCF7
In short: as §3

MV-4-11 = assay: CCK-8 proliferation, MV-4-11; type: cell-based, Human; conditions: Homo sapiens, MV4-11; CCK-8; 72 or 96 hours; read-out: Inhibitory activity (IC50) on tumor cell proliferation, MV-4-11
In short: as §3

CDK6 = biological target: T1, CDK6 (Homo sapiens, UniProt Q00534); assay: Western blot degradation of CDK6 (MDA-MB-231 Cell); type: cell-based; conditions: Table D3
T1 construct: evaluate the effects of the compounds of the present disclosure on the expression of target proteins in cells; endogenous in cells; host or cells: MDA-MB-231
T1 sequence (Q00534 whole entry): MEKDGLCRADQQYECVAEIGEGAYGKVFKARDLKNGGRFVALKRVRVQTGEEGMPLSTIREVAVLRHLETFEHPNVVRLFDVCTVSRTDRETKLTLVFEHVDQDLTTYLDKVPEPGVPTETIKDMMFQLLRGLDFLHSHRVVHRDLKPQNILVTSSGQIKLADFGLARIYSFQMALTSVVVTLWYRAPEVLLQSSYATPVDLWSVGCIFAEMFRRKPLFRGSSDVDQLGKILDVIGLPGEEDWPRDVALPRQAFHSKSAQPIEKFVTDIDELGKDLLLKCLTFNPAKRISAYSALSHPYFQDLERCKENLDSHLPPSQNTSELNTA
In short: (§4)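 Degradation is assessed by immunoblotting lysates of treated cells. Target bands are quantified by grayscale and normalised to an internal control, so degradation rate equals 100% minus % remaining.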

MM.1S = assay: CCK-8 proliferation, MM.1S; type: cell-based; conditions: Homo sapiens, MM1.S; CCK-8; 72 hours; read-out: Inhibitory activity (IC50) on tumor cell proliferation, MM1S
In short: as §3

Kasumi-1 = assay: CCK-8 proliferation, Kasumi-1; type: cell-based, Human; conditions: Homo sapiens, Kasumi 1, 72 hours, read-out: Inhibitory activity (IC50) on tumor cell proliferation, Kasumi-1
Protocol: as §1, §2

CDK4 = biological target: T2, CDK4 (Homo sapiens, UniProt P11802); assay: Western blot degradation of CDK4 (MDA-MB-231 Cell); type: cell-based; conditions: Table D3
T2 construct: evaluate the effects of the compounds of the present disclosure on the expression of target proteins in cells; endogenous in cells; host or cells: MDA-MB-231
T2 sequence (P11802 whole entry): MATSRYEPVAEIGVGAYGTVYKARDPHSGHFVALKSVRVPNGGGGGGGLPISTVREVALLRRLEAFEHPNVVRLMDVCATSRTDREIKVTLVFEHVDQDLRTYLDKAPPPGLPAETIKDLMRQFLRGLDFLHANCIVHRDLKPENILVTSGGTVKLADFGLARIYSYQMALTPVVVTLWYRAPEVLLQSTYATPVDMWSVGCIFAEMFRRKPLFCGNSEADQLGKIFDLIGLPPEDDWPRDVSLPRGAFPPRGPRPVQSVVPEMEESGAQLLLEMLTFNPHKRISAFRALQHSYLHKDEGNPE
In short: as §4

| Compound | IC50 (22RV1) [nM] | IC50 (H1975) [nM] | IC50 (SR) [nM] | IC50 (CCRF-CEM) [nM] | IC50 (MCF7) [nM] | IC50 (MV-4-11) [nM] | Degradation of substrate protein CDK6 (substrate protein remaining %) (CDK6) | IC50 (MM.1S) [nM] | IC50 (Kasumi-1) [nM] | Degradation of substrate protein CDK4 (substrate protein remaining %) (CDK4) |
| --- | --- | --- | --- | --- | --- | --- | --- | --- | --- | --- |
| Cc1nc2c(F)cc(-c3nc(Nc4ccc(N5CCC(N6CCN(Cc7cccc(NC8CCC(=O)NC8=O)c7)CC6)CC5)cn4)ncc3F)cc2n1C(C)C (centres unmarked) [GT-06743, 3-((3-((4-(1-(6-((5-fluoro-4-(4-fluoro-1-isopropyl-2-methyl-1H-benzo[d]imidazol-6-yl)pyrimidin-2-yl)amino)pyridin-3-yl)piperidin-4-yl)piperazin-1-yl)methyl)phenyl)amino)pip eridine-2,6-dione] | 10 to 50 | 100 to 500 | 50 to 100 | 100 to 500 | 100 to 500 | 50 to 100 | B (B is defined as substrate protein remaining % > 80%) | 100 to 500 | 100 to 500 | A (A is defined as 0% ≤ substrate protein remaining % ≤ 80%) |
| Cc1nc2c(F)cc(-c3nc(Nc4ccc(N5CCC(N(C)Cc6ccc(N7CCC(=O)NC7=O)nc6)CC5)cn4)ncc3F)cc2n1C(C)C [GT-06841, 1-(5-(((1-(6-((5-fluoro-4-(4-fluoro-1-isopropyl-2-methyl-1H-benzo[d]imidazol-6-yl)pyrimidin-2-yl)amino)pyridin-3-yl)piperidin-4-yl)(methyl)amino)methyl)pyridin-2-yl)dihydropyrimidine-2,4(1H,3H)-dione] | 10 to 50 | 100 to 500 | 10 to 50 | 100 to 500 | 50 to 100 | 10 to 50 | A (A is defined as 0% ≤ substrate protein remaining % ≤ 80%) | 100 to 500 | 50 to 100 | A (A is defined as 0% ≤ substrate protein remaining % ≤ 80%) |
| Cc1nc2c(F)cc(-c3nc(Nc4ccc(N5CCC(N(C)Cc6ccc(N7CCC(=O)NC7=O)cn6)CC5)cn4)ncc3F)cc2n1C(C)C [GT-06840, 1-(6-(((1-(6-((5-fluoro-4-(4-fluoro-1-isopropyl-2-methyl-1H-benzo[d]imidazol-6-yl)pyrimidin-2-yl)amino)pyridin-3-yl)piperidin-4-yl)(methyl)amino)methyl)pyridin-3-yl)dihydropyrimidine-2,4(1H,3H)-dione] | 50 to 100 | 100 to 500 | 50 to 100 | 100 to 500 | 1 to 10 | 50 to 100 | B (B is defined as substrate protein remaining % > 80%) | 100 to 500 | 100 to 500 | A (A is defined as 0% ≤ substrate protein remaining % ≤ 80%) |
| Cc1nc2c(F)cc(-c3nc(Nc4ccc(N5CCC(N6CCN(Cc7ccc(N8CCC(=O)NC8=O)cn7)CC6)CC5)cn4)ncc3F)cc2n1C(C)C [GT-06741, 1-(6-((4-(1-(6-((5-fluoro-4-(4-fluoro-1-isopropyl-2-methyl-1H-benzo[d]imidazol-6-yl)pyrimidin-2-yl)amino)pyridin-3-yl)piperidin-4-yl)piperazin-1-yl)methyl)pyridin-3-yl)dihydropyrimidine-2,4(1H,3H)-dione] | 10 to 50 | 100 to 500 | 10 to 50 | 50 to 100 | 50 to 100 | 10 to 50 | B (B is defined as substrate protein remaining % > 80%) | 100 to 500 | 100 to 500 | A (A is defined as 0% ≤ substrate protein remaining % ≤ 80%) |
| Cc1nc2c(F)cc(-c3nc(Nc4ccc(N5CCC(N(C)Cc6ccc(C7CCC(=O)NC7=O)cc6)CC5)cn4)ncc3F)cc2n1C(C)C (centres unmarked) [GT-06735, 3-(4-(((1-(6-((5-fluoro-4-(4-fluoro-1-isopropyl-2-methyl-1H-benzo[d]imidazol-6-yl)pyrimidin-2-yl)amino)pyridin-3-yl)piperidin-4-yl)(methyl)amino)methyl)phenyl)piperidine-2,6-dione] | 10 to 50 | 100 to 500 | 50 to 100 | 100 to 500 |  | 10 to 50 | A (A is defined as 0% ≤ substrate protein remaining % ≤ 80%) | 100 to 500 | 100 to 500 | A (A is defined as 0% ≤ substrate protein remaining % ≤ 80%) |
| Cc1nc2c(F)cc(-c3nc(Nc4ccc(CN5CCN(Cc6cccc(N7CCC(=O)NC7=O)c6)CC5)cn4)ncc3F)cc2n1C(C)C [GT-06666, 1-(3-((4-((6-((5-fluoro-4-(4-fluoro-1-isopropyl-2-methyl-1H-benzo[d]imidazol-6-yl)pyrimidin-2-yl)amino)pyridin-3-yl)methyl)piperazin-1-yl)methyl)phenyl)dihydropyrimidine-2,4(1H,3H)-dione] | 50 to 100 | 500 to 1000 | 100 to 500 | 100 to 500 | 100 to 500 | 10 to 50 | A (A is defined as 0% ≤ substrate protein remaining % ≤ 80%) | 500 to 1000 | 100 to 500 | A (A is defined as 0% ≤ substrate protein remaining % ≤ 80%) |
| Cc1nc2c(F)cc(-c3nc(Nc4ccc(N5CCC(N(C)Cc6ccc(N7CCC(=O)NC7=O)cc6)CC5)cn4)ncc3F)cc2n1C(C)C [GT-06838, 1-(4-(((1-(6-((5-fluoro-4-(4-fluoro-1-isopropyl-2-methyl-1H-benzo[d]imidazol-6-yl)pyrimidin-2-yl)amino)pyridin-3-yl)piperidin-4-yl)(methyl)amino)methyl)phenyl)dihydropyrimidine-2,4(1H,3H)-dione] | 10 to 50 | 100 to 500 | 10 to 50 | 100 to 500 | 50 to 100 | 10 to 50 | B (B is defined as substrate protein remaining % > 80%) | 100 to 500 | 50 to 100 | A (A is defined as 0% ≤ substrate protein remaining % ≤ 80%) |
| Cc1nc2c(F)cc(-c3nc(Nc4ccc(CN5CCN(Cc6ccc(N7CCC(=O)NC7=O)cn6)CC5)cn4)ncc3F)cc2n1C(C)C [GT-06667, 1-(6-((4-((6-((5-fluoro-4-(4-fluoro-1-isopropyl-2-methyl-1H-benzo[d]imidazol-6-yl)pyrimidin-2-yl)amino)pyridin-3-yl)methyl)piperazin-1-yl)methyl)pyridin-3-yl)dihydropyrimidine-2,4(1H,3H)-dione] | 50 to 100 |  | 100 to 500 | 100 to 500 | 100 to 500 | 10 to 50 | A (A is defined as 0% ≤ substrate protein remaining % ≤ 80%) |  | 100 to 500 | A (A is defined as 0% ≤ substrate protein remaining % ≤ 80%) |
| Cc1nc2c(F)cc(-c3nc(Nc4ccc(CN5CCN(Cc6ccc(N7CCC(=O)NC7=O)cc6)CC5)cn4)ncc3F)cc2n1C(C)C [GT-06665, 1-(4-((4-((6-((5-fluoro-4-(4-fluoro-1-isopropyl-2-methyl-1H-benzo[d]imidazol-6-yl)pyrimidin-2-yl)amino)pyridin-3-yl)methyl)piperazin-1-yl)methyl)phenyl)dihydropyrimidine-2,4(1H,3H)-dione] | 10 to 50 | 100 to 500 | 100 to 500 | 500 to 1000 | 100 to 500 | 10 to 50 | A (A is defined as 0% ≤ substrate protein remaining % ≤ 80%) |  | 100 to 500 | A (A is defined as 0% ≤ substrate protein remaining % ≤ 80%) |
